Assay results: patent US11147272B2, “Pyridone compounds and agricultural and horticultural fungicides comprising the same as active ingredients” (MITSUI CHEMICALS AGRO, INC., priority 2017, dated 2021)

What was measured:
Magnaporthe grisea = assay: whole plant or invertebrate; type: in vivo; conditions: Blast on rice; class of control value
Botrytis cinerea = assay: Test Example B: Gray mold on tomato; conditions: Gray mold on tomato; class of control value
Phytophthora infestans = assay: whole plant or invertebrate; type: in vivo; conditions: Late blight on tomato; class of control value
Alternaia brassicicola = assay: Test Example C: Alternaria sooty spot on cabbage; type: in vivo; conditions: Alternaria sooty spot on cabbage; class of control value
Text: Seeds of a test plant (cabbage variety: Shikidori) were planted and cultivated until the cotyledons extended.
<Control Value> Control value=100{1−(n/3)}

Puccinia recondita = assay: Test Example E: Brown rust on wheat; type: in vivo; conditions: Brown rust on wheat; class of control value
[1] = test system: Blumeria graminis f. sp. hordei; assay: Test Example D: Powdery mildew on barley; conditions: Powdery mildew on barley; class of control value
Plasmopara viticola = assay: Test Example G: Downy mildew on vine; conditions: Downy mildew on vine (Neomuscat); 250 ppm spray, 2.5 ml/pot; assessed 7 to 10 days after inoculation
[2] = test system: Colletotrichum orbiculare; assay: Test Example H: Anthracnose on cucumber; conditions: Anthracnose on cucumber (Sagami Hanjiro); 250 ppm spray, 2.5 ml/pot; assessed 6 to 10 days after inoculation

SMILES | Test A control value class (Magnaporthe grisea) | Test B control value class (Botrytis cinerea) | Test F control value class (Phytophthora infestans) | Test C control value class (Alternaia brassicicola) | Test E control value class (Puccinia recondita) | Test D control value class [1] | Test G control value class (Plasmopara viticola) | Test H control value class [2]
CCn1c(-c2ccc(F)cc2F)c(CC(C)C)cc(Br)c1=O [compound 120] | H (more than 50% control value) | H (more than 50% control value) | L (50% or less control value) | H (more than 50% control value) | H (more than 50% control value) | H (more than 50% control value) | L (50% or less control value) | H (more than 50% control value)
CCn1c(-c2ccc(OCCOC)cc2F)c(CC(C)C)cc(Cl)c1=O [compound 121] | H (more than 50% control value) | H (more than 50% control value) | L (50% or less control value) | H (more than 50% control value) | H (more than 50% control value) | H (more than 50% control value) | L (50% or less control value) | H (more than 50% control value)
CCn1c(-c2ccc(OCOC)cc2F)c(CC(C)C)cc(Cl)c1=O [compound 122] | H (more than 50% control value) | H (more than 50% control value) | L (50% or less control value) | H (more than 50% control value) | H (more than 50% control value) | H (more than 50% control value) | H (more than 50% control value) | H (more than 50% control value)
CCOc1ccc(-c2c(CC(C)C)cc(Cl)c(=O)n2CC)c(F)c1 [compound 123] | H (more than 50% control value) | H (more than 50% control value) | L (50% or less control value) | H (more than 50% control value) | H (more than 50% control value) | H (more than 50% control value) | H (more than 50% control value) | H (more than 50% control value)
C=CCOc1ccc(-c2c(CC(C)C)cc(Cl)c(=O)n2CC)c(F)c1 [compound 124] | H (more than 50% control value) | H (more than 50% control value) | L (50% or less control value) | H (more than 50% control value) | H (more than 50% control value) | H (more than 50% control value) | L (50% or less control value) | H (more than 50% control value)
C#CCOc1ccc(-c2c(CC(C)C)cc(Cl)c(=O)n2CC)c(F)c1 [compound 125] | H (more than 50% control value) | H (more than 50% control value) | L (50% or less control value) | H (more than 50% control value) | H (more than 50% control value) | H (more than 50% control value) | H (more than 50% control value) | H (more than 50% control value)
CCCOc1ccc(-c2c(CC(C)C)cc(Cl)c(=O)n2CC)c(F)c1 [compound 126] | L (50% or less control value) | H (more than 50% control value) | L (50% or less control value) | H (more than 50% control value) | H (more than 50% control value) | H (more than 50% control value) | H (more than 50% control value) | H (more than 50% control value)
CCn1c(-c2ccc(OCC#N)cc2F)c(CC(C)C)cc(Cl)c1=O [compound 127] | L (50% or less control value) | H (more than 50% control value) | L (50% or less control value) | H (more than 50% control value) | H (more than 50% control value) | H (more than 50% control value) | H (more than 50% control value) | H (more than 50% control value)
CCn1c(-c2ccc(OCSC)cc2F)c(CC(C)C)cc(Cl)c1=O [compound 128] | H (more than 50% control value) | H (more than 50% control value) | L (50% or less control value) | H (more than 50% control value) | H (more than 50% control value) | H (more than 50% control value) | H (more than 50% control value) | H (more than 50% control value)
CCn1c(-c2ccc(OCC3CC3)cc2F)c(CC(C)C)cc(Cl)c1=O [compound 129] | L (50% or less control value) | H (more than 50% control value) | L (50% or less control value) | H (more than 50% control value) | H (more than 50% control value) | H (more than 50% control value) | H (more than 50% control value) | L (50% or less control value)
CCn1c(-c2c(F)cc(OC)cc2F)c(CN(OC)C(C)=O)cc(Cl)c1=O [compound 130] | H (more than 50% control value) | L (50% or less control value) | L (50% or less control value) | H (more than 50% control value) | H (more than 50% control value) | L (50% or less control value) | H (more than 50% control value) | H (more than 50% control value)
CCn1c(-c2c(F)cc(OC)cc2F)c(CN(OC)C(=O)OC)cc(Cl)c1=O [compound 131] | H (more than 50% control value) | H (more than 50% control value) | L (50% or less control value) | H (more than 50% control value) | H (more than 50% control value) | H (more than 50% control value) | H (more than 50% control value) | H (more than 50% control value)
CCn1c(-c2c(F)cc(F)cc2F)c(CN(OC)C(C)=O)cc(Cl)c1=O [compound 132] | H (more than 50% control value) | L (50% or less control value) | L (50% or less control value) | H (more than 50% control value) | L (50% or less control value) | L (50% or less control value) | L (50% or less control value) | L (50% or less control value)
CCn1c(-c2c(F)cc(F)cc2F)c(CN(OC)C(=O)OC)cc(Cl)c1=O [compound 133] | H (more than 50% control value) | H (more than 50% control value) | L (50% or less control value) | H (more than 50% control value) | H (more than 50% control value) | H (more than 50% control value) | H (more than 50% control value) | H (more than 50% control value)
